Data reported in US10167507B2, “Metabolic diseases-related odorant receptor genes and use thereof” (INDUSTRY-ACADEMIC COOPERATION FOUNDATION, YONSEI UNIVERSITY, priority 2010, dated 2019).

What was measured:
[1] = test system: obesity and metabolic diseases-related genes in liver tissue; assay: RT-PCR of obesity and metabolic diseases-related genes, liver tissue; type: in vivo, mouse; conditions: odor component-supplemented group to the HFD control group
Experimental: (§1) After adding 1 mL of Trizol agent (Invitrogen, USA) per 0.1 g of visceral fat or liver tissues, the mixture was homogenized and centrifuged at 12,000×g for 10 min at 4° C. The supernatant was transferred to a new tube and 200 μl of chloroform was added to the tube, followed by vortexing. The same procedure was repeated twice and then the supernatant was transferred to a new tube, followed by addition of isopropanol and the supernatant at 1:1 ratio. The mixture was vigorously shaken 10 times and then incubated for 10 min at room temperature, followed by centrifugation at 12,000×g for 10 min at 4° C. to remove the supernatant. After adding 1 mL of 70% ethanol to the remaining pellet, it was centrifuged at 7,500×g for 5 min at 4° C. After removing the ethanol, the RNA pellet contained in the tube was dried for 5 min at 4° C. and dissolved in nuclease-free water. The RNA sample concentration was measured at a wavelength of 260 nm and 280 nm using a UV/VIS spectrophotometer (Beckman coulter, DU730) and the integrity of RNA sample was verified by agarose gel electrophoresis. The RNA sample obtained from the visceral fat or liver tissues was trasnscribed using oligo dT primer and reverse transcriptase (GIBCO BRL, Gaithersburg, Md., USA) to synthesize cDNA. The PCR amplification was performed using the cDNA as templates and primers complementary to cDNA [NT] flanking sequence. 1 μl of the amplified products were resolved on agarose gel electrophoresis to verify DNA band.

[2] = test system: CREB (cAMP-responsive element binding protein); assay: Western blotting, protein phosphorylation of CREB; type: in vivo, mouse; conditions: for CREB phosphorylation, increase (change rate): odor component-supplemented group to the HFD control group
Experimental: (§6) A certain amount of visceral fat or liver tissues in mortar was homogenized with liquid nitrogen and cell lysis buffer. The mixture was transferred to a new tube, followed by vortexing. After centrifugation at 13,000×g for 20 min at 4° C., the middle layer of the tube was obtained and proteins were quantified by Bradford method. 50 μg of protein was electrophorized to SDS polyacrylamide gel, followed by electroblotting to PVDF hyper film. The protein was reacted using an appropriate antibody for the protein and detected by ECL, whereby insulin resistance, adipocyte differentiation, lipid metabolism or energy consumption-related mechanism of phytochemical components was investigated in the protein level.
(§7) In order to verify this, protein phosphorylations of HSL (hormone sensitive lipase), CREB (cAMP-responsive element binding protein) and AKT (v-akt murine thymoma viral oncogene) were evaluated by western blotting analysis.

[3] = test system: AKT (v-akt murine thymoma viral oncogene); assay: Western blotting, protein phosphorylation of AKT; type: in vivo, mouse; conditions: for AKT phosphorylation, increase (change rate): odor component-supplemented group to the HFD control group
Experimental: as §6, §7

[4] = test system: obesity and metabolic diseases-related genes in visceral fat tissue; assay: RT-PCR of obesity and metabolic diseases-related genes, visceral fat tissue; type: in vivo, mouse; conditions: odor component-supplemented group to the HFD control group
Experimental: as §1

[5] = test system: HSL (hormone sensitive lipase); assay: Western blotting, protein phosphorylation of HSL; type: in vivo, mouse; conditions: for HSL phosphorylation, increase (change rate): odor component-supplemented group to the HFD control group
Experimental: as §6, §7

[6] = test system: olfactory receptors in liver tissue; assay: OligoDNA microarray, liver tissue of HFD mice fed odor components; type: in vivo, mouse
Excerpt: (§2) The obesity-inducing control diet used in the test was high-fat diet (HFD: 40% fat calorie, 17 g lard+3% corn oil/100 g diet). Diets supplemented with an odor component had the same composition as HFD, except that each of various types of odor components (indol-3-carbinol, oleuropein, cedryl acetate, α-cedrene and piperine) having anti-obesity efficacy was contained in 0.02-0.05% concentration. Indo)-3-carbinol, oleuropein, cedryl acetate, a-cedrene and piperine were purchased from Sigma-Aldrich.
(§3) After adding Trizol agent to visceral fat or liver tissue, the mixture was homogenized and centrifuged at 12,000×g for 10 min at 4° C. The supernatant was transferred to a new tube to remove fat layer. Then, 200 μl of chloroform was added to the tube, followed by vortexing. The same procedure was repeated twice and then the supernatant was transferred to a new tube, followed by addition of isopropanol and the supernatant at 1:1 ratio. The mixture was vigorously shaken 10 times and then incubated for 10 min at room temperature, followed by centrifugation at 12,000×g for 10 min at 4° C. to remove the supernatant. After adding 1 mL of 70% ethanol to the remaining pellet, it was centrifuged at 7,500×g for 5 min at 4° C. After removing the ethanol, the RNA pellet contained in the tube was dried for 5 min at 4° C. and dissolved in nuclease-free water. The RNA sample concentration was measured at a wavelength of 260 nm and 280 nm using a UV/VIS spectrophotometer (Beckman coulter, DU730) and the integrity of RNA sample was verified by agarose gel electrophoresis.
(§4) DNA microarry analysis using RNAs of visceral fat and liver tissue was conducted by GENOCHECK (CO., LTD.). RNA samples were pooled from 10 mice in each experimental group and subjected to microarray experiments in triplicate for the test of reproducibility. NimbleGen Mouse Whole Oligo 12-plex chip used in this experiment was prepared by triplicating 42,576 genes using Mouse Genome Build 8 as database. In NimbleGen mouse Whole Oligo 12-plex chip, 137,090 spots excluded control group gene were spotted by 16 μm×16 μm size in 17.4 mm×13 mm size. 42,576 oligo included […] genes which are known their functions and 5,431 transcripts and EST sequences which are unknown their functions. 10-50 μg of total RNA was added in oligo-dT primer, reverse transcriptase, dNTP, Cy3-dUTP and Cy5-dUTP, and reverse-transcripted according to the kit manufacturer's recommendations. The resultant was purified using cartridge, dried and dissolved in hybridization buffer solution (30 μL). The microarray was placed in hybridization cassette, heated at 95-100° C. for 5 min, mixed independently to each of RNA labeled with Cy3 and Cy5, and hybridized at 45° C. for 18 hrs. The slide was washed twice in solution containing 1×SSC and 0.1% SDS for 5 min, washed in 1×SSC for 5 min and dried to analyze.
(§5) The profile for olfactory receptors in which the expression was regulated by more than 2-fold change due to intake of odor components at each tissue was shown in Tables 5. As a result, it was determined that various types of odor components having anti-obesity efficacy regulated a plurality of olfactory receptors in peripheral tissues.

[7] = test system: olfactory receptors in visceral fat and liver tissues; assay: OligoDNA microarray, visceral fat and liver tissues of HFD mice fed odor components (tissue not separated in text); type: in vivo; conditions: supplemented to mouse fed high-fat diet for 10 weeks
Excerpt: as §2, §3, §4, §5

[8] = test system: olfactory receptors in visceral fat tissue; assay: OligoDNA microarray, visceral fat tissue of HFD mice fed odor components; type: in vivo, mouse
Experimental: DNA microarry analysis using RNAs of visceral fat and liver tissue was conducted by GENOCHECK (CO., LTD.). RNA samples were pooled from 10 mice in each experimental group and subjected to microarray experiments in triplicate for the test of reproducibility. NimbleGen Mouse Whole Oligo 12-plex chip used in this experiment was prepared by triplicating 42,576 genes using Mouse Genome Build 8 as database. In NimbleGen mouse Whole Oligo 12-plex chip, 137,090 spots excluded control group gene were spotted by 16 μm×16 μm size in 17.4 mm×13 mm size. 42,576 oligo included 137,145 genes which are known their functions and 5,431 transcripts and EST sequences which are unknown their functions. 10-50 μg of total RNA was added in oligo-dT primer, reverse transcriptase, dNTP, Cy3-dUTP and Cy5-dUTP, and reverse-transcripted according to the kit manufacturer's recommendations. The resultant was purified using cartridge, dried and dissolved in hybridization buffer solution (30 μL). The microarray was placed in hybridization cassette, heated at 95-100° C. for 5 min, mixed independently to each of RNA labeled with Cy3 and Cy5, and hybridized at 45° C. for 18 hrs. The slide was washed twice in solution containing 1×SSC and 0.1% SDS for 5 min, washed in 1×SSC for 5 min and dried to analyze.

[9] = western blotting, compared to the HFD control group
[10] = supplemented to HFD-fed mouse 10 weeks

OCc1c[nH]c2ccccc12 [indol-3-carbinol]
C/EBPα gene expression, decrease (change rate) [1]: 25% decrease | CPT1 gene expression, increase (change rate) [1]: 33% increase^ | FAS gene expression, decrease (change rate) [1]: 27% decrease | IL-6 gene expression, decrease (change rate) [1]: 45% decrease | PPARγ2 gene expression, decrease (change rate) [1]: 36% decrease | TNFα gene expression, decrease (change rate) [1]: 33% decrease | aP2 gene expression, decrease (change rate) [1]: 29% decrease | CREB phosphorylation, increase (change rate) [2]: 45% increase | phosphorylation of CREB [2, 9]: significantly increased | AKT phosphorylation, increase (change rate) [3]: 40% increase | phosphorylation of AKT [3, 9]: significantly increased | C/EBPα gene expression, decrease (change rate) [4]: 11% decrease^a) | CPT1 gene expression, increase (change rate) [4]: 25% increase^ | FAS gene expression, decrease (change rate) [4]: 56% decrease | IL-6 gene expression, decrease (change rate) [4]: 76% decrease | PGC1α gene expression, increase (change rate) [4]: 120% increase ^ | PPARγ2 gene expression, decrease (change rate) [4]: 20% decrease | SIRT1 gene expression, increase (change rate) [4]: 45% increase^ | TNFα gene expression, decrease (change rate) [4]: 23% decrease | UCP1 gene expression, increase (change rate) [4]: 210% increase ^ | UCP3 gene expression, increase (change rate) [4]: 72% increase^ | aP2 gene expression, decrease (change rate) [4]: 44% decrease | HSL phosphorylation, increase (change rate) [5]: 31% increase ^a) | phosphorylation of HSL [5, 9]: significantly increased | expression of olfactory receptor 1045 [6]: decreased | Olfr290 expression fold change to HFD group [6, 10]: 2.11 | Olfr1045 expression fold change to HFD group [6, 10]: 0.45 | expression of olfactory receptor 16 decreased [7]: more than 2 fold change | expression of olfactory receptor 116 increased [7]: more than 2 fold change | expression of olfactory receptor 178 increased [7]: more than 2 fold change | expression of olfactory receptor 196 decreased [7]: more than 2 fold change | expression of olfactory receptor 259 decreased [7]: more than 2 fold change | expression of olfactory receptor 290 increased [7]: more than 2 fold change | expression of olfactory receptor 380 increased [7]: more than 2 fold change | expression of olfactory receptor 466 decreased [7]: more than 2 fold change | expression of olfactory receptor 686 decreased [7]: more than 2 fold change | expression of olfactory receptor 909 increased [7]: more than 2 fold change | expression of olfactory receptor 972 decreased [7]: more than 2 fold change | expression of olfactory receptor 1045 decreased [7]: more than 2 fold change | expression of olfactory receptor 1093 decreased [7]: more than 2 fold change | expression of olfactory receptor 1153 increased [7]: more than 2 fold change | expression of olfactory receptor 1165 decreased [7]: more than 2 fold change | expression of olfactory receptor 1216 decreased [7]: more than 2 fold change | expression of olfactory receptor 1329 decreased [7]: more than 2 fold change | expression of olfactory receptor 1337 decreased [7]: more than 2 fold change | expression of olfactory receptor 1462 increased [7]: more than 2 fold change | expression of olfactory receptor 380 [8]: increased | expression of olfactory receptor 1165 [8]: decreased | Olfr380 expression fold change to HFD group [8, 10]: 2.2 | Olfr1165 expression fold change to HFD group [8, 10]: 0.39 | Olfr1462 expression fold change to HFD group [8, 10]: 2.26

O=C(/C=C/C=C/c1ccc2c(c1)OCO2)N1CCCCC1 [piperine]
C/EBPα gene expression, decrease (change rate) [1]: 8% decrease | CPT1 gene expression, increase (change rate) [1]: 44% increase^ | FAS gene expression, decrease (change rate) [1]: 67% decrease | IL-6 gene expression, decrease (change rate) [1]: 71% decrease | PPARγ2 gene expression, decrease (change rate) [1]: 44% decrease | TNFα gene expression, decrease (change rate) [1]: 60% decrease | aP2 gene expression, decrease (change rate) [1]: 55% decrease | CREB phosphorylation, increase (change rate) [2]: 29% increase | AKT phosphorylation, increase (change rate) [3]: 47% increase | C/EBPα gene expression, decrease (change rate) [4]: 35% decrease | CPT1 gene expression, increase (change rate) [4]: 75% increase^ | FAS gene expression, decrease (change rate) [4]: 52% decrease | IL-6 gene expression, decrease (change rate) [4]: 83% decrease | PGC1α gene expression, increase (change rate) [4]: 324% increase ^ | PPARγ2 gene expression, decrease (change rate) [4]: 30% decrease | SIRT1 gene expression, increase (change rate) [4]: 36% increase^ | TNFα gene expression, decrease (change rate) [4]: 75% decrease | UCP1 gene expression, increase (change rate) [4]: 905% increase ^ | UCP3 gene expression, increase (change rate) [4]: 75% increase^ | aP2 gene expression, decrease (change rate) [4]: 60% decrease | HSL phosphorylation, increase (change rate) [5]: 45% increase | Olfr38 expression fold change to HFD group [6, 10]: 3.93 | Olfr77 expression fold change to HFD group [6, 10]: 0.42 | Olfr520 expression fold change to HFD group [6, 10]: 2.24 | Olfr878 expression fold change to HFD group [6, 10]: 5.56 | Olfr1462 expression fold change to HFD group [6, 10]: 0.49 | expression of olfactory receptor 38 increased [7]: more than 2 fold change | expression of olfactory receptor 77 decreased [7]: more than 2 fold change | expression of olfactory receptor 520 increased [7]: more than 2 fold change | expression of olfactory receptor 878 increased [7]: more than 2 fold change | expression of olfactory receptor 1462 decreased [7]: more than 2 fold change
